Literature values in patent US5346701A, “Transmucosal delivery of macromolecular drugs” (TheraTech, Inc., priority 1993, dated 1994).

Key:
[1] = nasal membranes
[2] = system: renal mesengial cells
[3] = system: vascular smooth muscle cells
[4] = system: platelets; settings: in vitro
[5] = system: thrombin
[6] = system: antithrombin III (AT III); settings: clinically used heparin
[7] = system: delayed-typehypersensitivity
[8] = system: angiogenesis

## C[C@H](CCC(=O)O)[C@H]1CC[C@H]2[C@@H]3[C@H](O)C[C@@H]4C[C@H](O)CC[C@]4(C)[C@H]3CC[C@]12C [chenodeoxycholate]
[1]
  order of effectiveness as enhancer of insulin absorption: deoxycholate<chenodeoxycholate<cholate<ursodeoxycholate

## C[C@H](CCC(=O)O)[C@H]1CC[C@H]2[C@@H]3[C@H](O)C[C@@H]4C[C@H](O)CC[C@]4(C)[C@H]3C[C@H](O)[C@]12C [cholate]
[1]
  order of effectiveness as enhancer of insulin absorption: deoxycholate<chenodeoxycholate<cholate<ursodeoxycholate

## C[C@H](CCC(=O)O)[C@H]1CC[C@H]2[C@@H]3[C@@H](O)C[C@@H]4C[C@H](O)CC[C@]4(C)[C@H]3CC[C@]12C [ursodeoxycholate]
[1]
  order of effectiveness as enhancer of insulin absorption: deoxycholate<chenodeoxycholate<cholate<ursodeoxycholate

## heparin
[2]
  proliferation of renal mesengial cells: inhibits the proliferation
[3]
  proliferation of vascular smooth muscle cells: inhibits the proliferation
[4]
  release of platelets: enhances the release of platelets
Colon of a baboon, without bile salt
  prolongation of partial thromboplastin time or release of plasma lipase activity: not apparent
With sodium cholate or deoxycholate in the formulation
  activity (partial thromboplastin time / plasma lipase): significant activity was detected
[5]
  acceleration of rate of thrombin inactivation: up to 2000 -fold
[6]
  proportion of heparin having high affinity for AT III: Approximately 33%
[7]
  delayed-type hypersensitivity: suppresses
[8]
  angiogenesis: inhibits angiogenesis
